From patent publication US20020132758A1, “Method for identifying compounds to treat medical pathologies associated with molecular crystallization” (priority 2001, published 2002)
In brackets after ≈: the same amount, converted by molar mass.

Experiment: Water solubility of cholesterol at 37° C. determined by HPLC
Format: physicochemical
Experimental: Reference is made to two chemical compounds: pure cholesterol (C-pure), and modified cholesterol (C-mod). C-mod is made by partial thermal degradation of C-pure. As a consequence, C-mod is structurally very similar, but not identical, to C-pure. In the first of three steps to this example, a quantity of C-mod is produced by heating 10 grams of dry C-pure in the presence of oxygen for 30 minutes at 134° C., which is a temperature that is 15° below the melting point of the pure substance. In a second step to this example, 10 mg of C-pure is added to one liter of distilled water. The resulting suspension is then stirred at 50° C. for two hours, followed by stirring at 37° C. for 6 hours. The concentration of solute in solution at 37° is then determined by an HPLC analytical method. […] In the third and final step to this example, the process of the second step is repeated with 10 mg of C-pure in one liter of distilled water, and 10 mg of C-mod is also added to the initial suspension. In this case, HPLC determination of the concentration of C-pure in the supernatant solution results in a finding of 1.2 mg/100 mL. […] This increase in apparent solubility of C-pure is considered to be a consequence of the selective inhibition of crystal nucleation and growth, due to the presence of molecules that are similar to but not identical to those of the solute.

- concentration of C-pure in the supernatant solution (apparent solubility) (10 mg C-pure plus 10 mg C-mod in one liter distilled water, 37° C., HPLC specific to C-pure): 1.2 mg/100 mL
- solubility thermodynamic (thermodynamic from solid, 10 mg C-pure in one liter distilled water, stirred 50° C. 2 h then 37° C. 6 h, HPLC, no C-mod): 4.5 µg/mL (≈ 11.6 µM)
Compound: CC(C)CCC[C@@H](C)[C@H]1CC[C@H]2[C@@H]3CC=C4C[C@@H](O)CC[C@]4(C)[C@H]3CC[C@]12C [C-pure, cholesterol]
